Measurements: patent publication EP4509511A1, “SUBSTITUTED SPIRO-ISOXAZOLINYL LACTAMS, SALTS THEREOF AND THEIR USE AS HERBICIDALLY ACTIVE SUBSTANCES” (Bayer Aktiengesellschaft, priority 2023, dated 2025)

Tests used:
DIGSA [1] = test: Herbicidal pre-emergence action - Part I; type: in vivo, Digitaria sanguinalis; settings: visual grading after ca. 3 weeks vs untreated controls
Method in brief: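 Pre-emergence soil-surface spray, 1280 g/ha or lower, WP/EC formulations plus 0.5% additive, 600 l/ha water. Pots of sandy loam, double sowing mono/dicot weeds. Greenhouse, optimum conditions; % herbicidal effect scored visually at ~3 wk, 100% = plants died, 0% = as control.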

VIOTR = test: Herbicidal pre-emergence action - Part II; type: in vivo, Viola tricolor
Text: (§1) Seeds of mono- and dicotyledonous weed plants and crop plants were sown, in plastic or organic planting pots, in sandy loam and covered with soil. The compounds according to the invention, formulated in the form of wettable powders (WP) or as emulsifiable concentrates (EC), were applied to the surface of the covering soil as aqueous suspension or emulsion, with the addition of 0.5% of an additive, at an application rate of 600 1 of water/ha (converted). Following treatment, the pots were placed in a greenhouse and kept under optimum growth conditions for the test plants. The visual grading of the damage to the test plants was carried out after ca. 3 weeks in comparison to untreated controls (herbicidal effect in percent (%): 100% effect = plants have died off, 0% effect = as control plants). Tables C1 to C12 below show the effects of selected compounds of the general formula (I) according to table 1 on various harmful plants and an application rate corresponding to 320 g/ha or below obtained by the experimental procedure mentioned above. Table C1: pre-emergence activity at 320g/ha against ABUTH in %

ALOMY = test: Herbicidal post-emergence action - Part I; type: in vivo, Alopecurus myosuroides; settings: one-leaf stage, rated visually after about 3 weeks vs untreated controls
Method: (§2) Seeds of mono- and dicotyledonous weed plants were placed in plastic pots in sandy loam soil (doubly sown with in each case one species of mono- or dicotyledonous weed plants per pot), covered with soil and cultivated in a greenhouse under controlled growth conditions. 2 to 3 weeks after sowing, the test plants were treated at the one-leaf stage. The compounds of the invention, formulated in the form of wettable powders (WP) or as emulsion concentrates (EC), were applied onto the green parts of the plants as aqueous suspension or emulsion with addition of 0.5% additive at a water application rate of 600 liters per hectare (converted). After the test plants had been kept in the greenhouse under optimum growth conditions for about 3 weeks, the activity of the preparations was rated visually in comparison to untreated controls. For example, 100% activity = the plants have died, 0% activity = like control plants. Tables B1 to B12, below, show the effects of selected compounds of the general formula (I) according to table 1 on various harmful plants and an application rate corresponding to 1280 g/ha or below obtained by the experimental procedure mentioned above. Table B1a: post-emergence activity at 1280g/ha against ABUTH in %

AVEFA = test: Herbicidal pre-emergence action - Part II; type: in vivo, Avena fatua; settings: 320 g/ha; Table C4
Text: as §1

LOLRI = test: Herbicidal pre-emergence action - Part I; type: in vivo, Lolium rigidum; settings: visual grading after ca. 3 weeks vs untreated controls
Text: Seeds of mono- and dicotyledonous weed plants were sown in plastic pots (double sowings with one species of mono- and one species of dicotyledonous weed plants per pot), in sandy loam, and covered with soil. The compounds according to the invention, formulated in the form of wettable powders (WP) or as emulsifiable concentrates (EC), were applied to the surface of the covering soil as aqueous suspension or emulsion, with the addition of 0.5% of an additive, at an application rate of 600 1 of water per hectare (converted). Following treatment, the pots were placed in a greenhouse and kept under optimum growth conditions for the test plants. The visual grading of the damage to the test plants was carried out after ca. 3 weeks in comparison to untreated controls (herbicidaleffectinpercent(%):100%effect=plantshavediedoff,0%effect=ascontrolplants). [formula]
Tables A1 to A12, below, show the effects of selected compounds of the general formula (I) according to table 1 on various harmful plants and an application rate corresponding to 1280 g/ha or below obtained by the experimental procedure mentioned above. Table A1: pre-emergence activity at 1280g/ha against ABUTH in %

VERPE [2] = test: Herbicidal pre-emergence action - Part II; type: in vivo, Veronica persica
Text: as §1

POLCO = test: Herbicidal pre-emergence action - Part II; type: in vivo, Polygonum convolvulus; settings: 320 g/ha; Table C9
Text: as §1

ECHCG [3] = test: Herbicidal post-emergence action - Part I; type: in vivo, Echinochloa crus-galli; settings: one-leaf stage, rated visually after about 3 weeks vs untreated controls
Method in brief: (§3)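 Greenhouse weeds grown in sandy loam were sprayed post-emergence at the one-leaf stage, 2-3 weeks after sowing. Compounds were applied as WP or EC in water with 0.5% additive at 600 L/ha, at 1280 g/ha or below. Visual damage was rated after about 3 weeks versus untreated plants (0-100%).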

SETVI [4] = test: Herbicidal post-emergence action - Part II; type: in vivo, Setaria viridis; settings: 320 g/ha; Table E7c
Method in brief: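 Post-emergence greenhouse test: weeds and crops in sandy loam sprayed at single-leaf stage, 2–3 weeks after sowing, with WP or EC formulations in water plus 0.5% additive at 600 l water/ha. Rates 320 g/ha or below. Visual rating after ca. 3 weeks versus untreated controls, % effect (100% = plants dead).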

VERPE [5] = test: Herbicidal post-emergence action - Part I; type: in vivo, Veronica persica; settings: one-leaf stage, rated visually after about 3 weeks vs untreated controls
Method in brief: as §3

SETVI [6] = test: Herbicidal post-emergence action - Part I; type: in vivo, Setaria viridis; settings: one-leaf stage, rated visually after about 3 weeks vs untreated controls
Method: as §2

ABUTH [7] = test: Herbicidal post-emergence action - Part I; type: in vivo, Abutilon theophrasti; settings: 1280 g/ha, one-leaf stage, rated visually after about 3 weeks vs untreated controls
Method in brief: as §3

MATIN = test: Herbicidal pre-emergence action - Part II; type: in vivo, Matricaria inodora; settings: 320 g/ha; Table C8
Text: as §1

ECHCG [8] = test: Herbicidal post-emergence action - Part II; type: in vivo, Echinochloa crus-galli; settings: 320 g/ha; Table E3b
Text: Seeds of mono- and dicotyledonous weed plants and crop plants were sown, in plastic or organic planting pots, in sandy loam, covered with soil and grown in a greenhouse under controlled growth conditions. 2 to 3 weeks after sowing, the test plants were sprayed in the single-leaf stage. The compounds according to the invention, formulated in form of wettable powders (WP) or as emulsifiable concentrates (EC), were sprayed onto the green plant parts as aqueous suspension or emulsion, with the addition of 0.5% of an additive, at an application rate of 600 1 of water/ha (converted). The test plants were placed in the greenhouse for ca. 3 weeks under optimum growth conditions, and then the effect of the preparations was assessed visually in comparison with untreated controls (herbicidal effect in percent (%): 100% effect = plants have died off, 0% effect = as control plants). Tables E1 to E10 below show the effects of selected compounds of the general formula (I) according to table 1 on various harmful plants and an application rate corresponding to 320 g/ha or below obtained by the experimental procedure mentioned above. Table E1a: post-emergence activity at 5g/ha against ABUTH in %

ABUTH [9] = test: Herbicidal pre-emergence action - Part II; type: in vivo, Abutilon theophrasti; settings: visual grading after ca. 3 weeks vs untreated controls
Text: as §1

DIGSA [10] = test: Herbicidal post-emergence action - Part I; type: in vivo, Digitaria sanguinalis; settings: one-leaf stage, rated visually after about 3 weeks vs untreated controls
Method: as §2

Cc1ccsc1C1=NOC2(CCCN(Cc3c(F)cccc3F)C2=O)C1 (racemic) [Compound I-2]
pre-emergence activity at 320g/ha against DIGSA in % (DIGSA [1]; 320 g/ha): 100% | pre-emergence activity at 1280g/ha against DIGSA in % (DIGSA [1]; 1280 g/ha): 100% | pre-emergence activity against VIOTR (VIOTR; 80 g/ha, Table C12b): 90% | pre-emergence activity against VIOTR (VIOTR; 320 g/ha, Table C12a): 90% | post-emergence activity at 1280g/ha against ALOMY in % (ALOMY): 90% | pre-emergence activity against AVEFA (AVEFA): 80% | pre-emergence activity at 320g/ha against LOLRI in % (LOLRI; 320 g/ha): 100% | pre-emergence activity at 1280g/ha against LOLRI in % (LOLRI; 1280 g/ha): 100% | pre-emergence activity against VERPE (VERPE [2]; 80 g/ha, Table C11b): 90% | pre-emergence activity against VERPE (VERPE [2]; 320 g/ha, Table C11a): 90% | pre-emergence activity against POLCO (POLCO): 80% | post-emergence activity at 320g/ha against ECHCG in % (ECHCG [3]; 320 g/ha): 90% | post-emergence activity at 1280g/ha against ECHCG in % (ECHCG [3]; 1280 g/ha): 90% | post-emergence activity against SETVI (SETVI [4]): 90% | post-emergence activity at 320g/ha against VERPE in % (VERPE [5]; 320 g/ha): 90% | post-emergence activity at 1280g/ha against VERPE in % (VERPE [5]; 1280 g/ha): 90% | post-emergence activity at 80g/ha against SETVI in % (SETVI [6]; 80 g/ha): 90% | post-emergence activity at 320g/ha against SETVI in % (SETVI [6]; 320 g/ha): 90% | post-emergence activity at 1280g/ha against SETVI in % (SETVI [6]; 1280 g/ha): 90% | post-emergence activity at 1280g/ha against ABUTH in % (ABUTH [7]): 90% | pre-emergence activity against MATIN (MATIN): 90% | post-emergence activity against ECHCG (ECHCG [8]): 90% | pre-emergence activity at 320g/ha against ABUTH in % (ABUTH [9]): 80% | post-emergence activity at 320g/ha against DIGSA in % (DIGSA [10]; 320 g/ha): 90% | post-emergence activity at 1280g/ha against DIGSA in % (DIGSA [10]; 1280 g/ha): 90%
